From patent US12502385B2, “Analogs of deutetrabenazine, their preparation and use” (Auspex Pharmaceuticals, Inc., priority 2017, dated 2025)
Several values for one entry are separate records, joined by “and”; a condition that tells them apart may be missing. Equal entries are not always repeated.

How the values were obtained:
[1] = in vivo
Experimental: A 90-day GLP general rat toxicology study was conducted with Compound 1.

[2] = system: mice; details: mouse, in vivo
Experimental: A 3-day GLP mouse micronucleus study was conducted with Compound 1. That study included a GLP Bacterial Reverse Mutation Assay of deutetrabenazine with Compound 1. That study also included an in vitro Chromosome Aberration Test in Cultured Human Peripheral Blood Lymphocytes. In the study, the highest level of 80 mg/kg/day of deutetrabenazine was not genotoxic in males and females. That dose level was predicted to provide 2.77 mg Compound 1/kg/day in mice, which approximates to a human equivalent dose of 0.23 mg/kg.

Structure (SMILES)	NOAEL at 90 day ([1]; rat) [mg/kg/day]	genotoxicity ([2]; 80 mg/kg/day)	NOAEL at 90 day ([1]; in vivo)	Compound 1 dose provided at the non-genotoxic deutetrabenazine level ([2]; both, 3 day) [mg/kg/day]	human equivalent dose of Compound 1 at the non-genotoxic level ([2]; both, 3 day) [mg/kg]
[2H]C([2H])([2H])Oc1cc2c(cc1OC([2H])([2H])[2H])C1CC(=O)C(CC(C)C)CN1CC2 (centres unmarked) [deutetrabenazine, d6-Tetrabenazine]	10	not genotoxic	–	–	–
[2H]C([2H])([2H])Oc1cc2c(cc1OC([2H])([2H])[2H])[C@@H]1CC(=O)[C@H](CC(C)C)CN1CC2 (racemic) [Compound 1, (RS, SR)-1,3,4,6,7,11b-hexahydro-9,10-di(methoxy-d3)-3-(2-methylpropyl)-2H-benzo[a]quinolizin-2-one]	–	–	0.346 mg/kg/day and ~0.056 mg/kg	2.77	~0.23
